Laboratory results published in article doi:10.1101/2024.01.16.575974v2, “Structural insights into peptidoglycan hydrolysis by the FtsEX system in Escherichia coli during cell division” (biorxiv, 2025).
Numbering of substitutions follows the chain as printed.

Tests used:
PaeFtsEX = target: T1, PaeFtsEX (Pseudomonas aeruginosa, UniProt Q9I6C0); assay: complex stabilisation (SEC yield, FtsE:FtsX stoichiometry on SDS-PAGE); conditions: 2 mM ATP, pH 8.0; indirect evidence of binding
T1 construct: gene ftsE; His6-FtsEX (pTD68) expressed in E. coli BL21(DE3) pLysS, DDM-solubilised, peptidiscs, SEC; with Cell division protein FtsX
T1 sequence (Q9I6C0 1-223): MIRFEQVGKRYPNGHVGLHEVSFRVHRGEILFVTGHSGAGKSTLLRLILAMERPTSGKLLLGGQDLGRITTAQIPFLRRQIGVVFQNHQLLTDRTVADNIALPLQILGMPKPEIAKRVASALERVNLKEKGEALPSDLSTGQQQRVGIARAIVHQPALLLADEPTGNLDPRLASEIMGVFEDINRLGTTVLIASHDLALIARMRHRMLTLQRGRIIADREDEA
T1 sequence (Q9I6B9 1-335 partner): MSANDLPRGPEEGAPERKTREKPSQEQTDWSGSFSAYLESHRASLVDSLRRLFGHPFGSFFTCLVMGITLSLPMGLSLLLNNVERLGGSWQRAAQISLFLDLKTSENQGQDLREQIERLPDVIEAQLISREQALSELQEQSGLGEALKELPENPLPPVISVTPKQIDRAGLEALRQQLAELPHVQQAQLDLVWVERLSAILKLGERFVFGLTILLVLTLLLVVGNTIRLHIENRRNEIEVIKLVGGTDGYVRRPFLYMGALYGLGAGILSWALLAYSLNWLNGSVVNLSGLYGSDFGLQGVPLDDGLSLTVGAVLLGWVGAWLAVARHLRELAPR

BsFtsEX = target: T2, BsFtsEX (Bacillus subtilis, UniProt O34814); assay: as above; conditions: 2 mM ATP, pH 8.0; indirect evidence of binding
T2 construct: gene ftsE; His6-FtsEX (pTD68) expressed in E. coli BL21(DE3) pLysS, DDM-solubilised, peptidiscs, SEC; with Cell division protein FtsX
T2 sequence (O34814 1-228): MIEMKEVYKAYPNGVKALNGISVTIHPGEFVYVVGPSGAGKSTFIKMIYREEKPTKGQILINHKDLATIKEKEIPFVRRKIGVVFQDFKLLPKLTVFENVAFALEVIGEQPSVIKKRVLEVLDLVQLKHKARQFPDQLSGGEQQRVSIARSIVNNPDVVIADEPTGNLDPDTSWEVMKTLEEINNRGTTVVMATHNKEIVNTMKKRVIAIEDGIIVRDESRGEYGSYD
T2 sequence (O34876 1-296 partner): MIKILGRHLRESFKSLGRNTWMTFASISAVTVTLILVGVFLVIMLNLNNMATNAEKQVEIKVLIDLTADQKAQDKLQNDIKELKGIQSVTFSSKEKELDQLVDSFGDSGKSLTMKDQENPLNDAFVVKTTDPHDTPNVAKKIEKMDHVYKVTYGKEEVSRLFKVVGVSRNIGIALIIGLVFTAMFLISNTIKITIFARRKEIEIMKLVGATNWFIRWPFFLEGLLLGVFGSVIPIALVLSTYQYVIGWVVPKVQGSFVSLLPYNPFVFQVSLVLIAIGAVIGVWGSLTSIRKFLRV

SpFtsEX = target: T3, SpFtsEX (Streptococcus pneumoniae, UniProt A0A0H2ZM82); assay: as above; conditions: 2 mM ATP, pH 8.0; indirect evidence of binding
T3 construct: gene ftsE; His6-FtsEX (pTD68) expressed in E. coli BL21(DE3) pLysS, DDM-solubilised, peptidiscs, SEC; with Cell division protein FtsX
T3 sequence (A0A0H2ZM82 1-230): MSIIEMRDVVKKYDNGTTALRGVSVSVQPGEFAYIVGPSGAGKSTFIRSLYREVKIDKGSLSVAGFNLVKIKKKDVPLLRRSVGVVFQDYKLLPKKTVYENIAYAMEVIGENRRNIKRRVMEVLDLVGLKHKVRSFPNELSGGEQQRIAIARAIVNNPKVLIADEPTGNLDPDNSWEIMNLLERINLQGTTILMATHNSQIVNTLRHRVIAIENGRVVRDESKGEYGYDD
T3 sequence (Q04LE4 1-308 partner): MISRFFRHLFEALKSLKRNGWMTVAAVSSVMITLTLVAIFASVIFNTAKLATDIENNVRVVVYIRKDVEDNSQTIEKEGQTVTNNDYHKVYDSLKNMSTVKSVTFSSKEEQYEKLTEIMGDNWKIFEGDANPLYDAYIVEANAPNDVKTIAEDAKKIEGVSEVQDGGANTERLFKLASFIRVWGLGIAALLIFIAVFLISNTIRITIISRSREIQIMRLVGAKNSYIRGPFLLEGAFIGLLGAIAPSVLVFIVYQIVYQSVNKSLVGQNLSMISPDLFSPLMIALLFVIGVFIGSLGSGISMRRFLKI

EcoFtsEX/EnvC = target: T4, EcoFtsEX/EnvC (Escherichia coli, UniProt P0A9R7, E163Q); assay: cryo-EM structure, […] Å; assay type: binding; conditions: 2 mM ATP-Mg2+, peptidiscs; hydrolysis-deficient mutant, two bound nucleotides at FtsE
T4 construct: gene ftsE; full-length His6-FtsEX in peptidiscs plus EnvC delta34 (signal region removed, His6-SUMO tag cut), both expressed in E. coli BL21(DE3) pLysS; with Cell division protein FtsX
T4 sequence (P0A9R7 1-222 E163Q): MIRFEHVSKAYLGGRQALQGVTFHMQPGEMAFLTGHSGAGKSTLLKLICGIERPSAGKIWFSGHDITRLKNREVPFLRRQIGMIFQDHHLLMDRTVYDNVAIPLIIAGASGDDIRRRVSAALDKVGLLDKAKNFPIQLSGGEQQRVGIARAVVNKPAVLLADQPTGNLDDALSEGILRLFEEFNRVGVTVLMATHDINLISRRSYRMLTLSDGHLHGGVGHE
T4 sequence (P0AC30 1-352 partner): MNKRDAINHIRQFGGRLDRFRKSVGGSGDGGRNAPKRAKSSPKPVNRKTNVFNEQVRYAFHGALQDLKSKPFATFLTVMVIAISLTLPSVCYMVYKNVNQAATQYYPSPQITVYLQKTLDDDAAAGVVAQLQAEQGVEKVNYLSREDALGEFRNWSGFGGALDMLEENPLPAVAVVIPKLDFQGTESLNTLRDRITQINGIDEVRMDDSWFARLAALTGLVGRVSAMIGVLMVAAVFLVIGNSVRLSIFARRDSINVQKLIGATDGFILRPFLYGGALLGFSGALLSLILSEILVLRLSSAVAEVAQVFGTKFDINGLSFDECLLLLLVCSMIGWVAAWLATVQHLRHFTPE
T4 sequence (P37690 35-419 partner): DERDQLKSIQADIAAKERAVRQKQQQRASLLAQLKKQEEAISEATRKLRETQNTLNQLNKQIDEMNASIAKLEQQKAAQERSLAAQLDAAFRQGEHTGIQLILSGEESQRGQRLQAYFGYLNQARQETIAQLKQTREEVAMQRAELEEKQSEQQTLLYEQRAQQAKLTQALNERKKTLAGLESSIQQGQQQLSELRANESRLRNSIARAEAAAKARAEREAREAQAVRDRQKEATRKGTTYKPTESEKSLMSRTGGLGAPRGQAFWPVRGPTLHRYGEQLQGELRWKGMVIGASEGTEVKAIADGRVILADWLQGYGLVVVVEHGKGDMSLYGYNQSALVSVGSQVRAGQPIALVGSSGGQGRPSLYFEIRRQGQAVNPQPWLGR

EcoFtsEX [1] = target: T5, EcoFtsEX (Escherichia coli, UniProt P0A9R7); assay: complex stabilisation against precipitation (SDS-PAGE); assay type: binding; conditions: 2 mM nucleotide, pH 8.0
T5 construct: gene ftsE; full-length, His6-tagged (pTD68 his6-FtsEX), expressed in E. coli BL21(DE3) pLysS, DDM-solubilised, in peptidiscs; two FtsE and two FtsX; with Cell division protein FtsX
T5 sequence (P0A9R7 1-222): T4 sequence (P0A9R7 1-222 E163Q) with Q163E
T5 sequence (P0AC30 1-352 partner): T4 sequence (P0AC30 1-352 partner)

EcoFtsEX [2] = target: T5, EcoFtsEX; assay: cryo-EM structure, […] Å; assay type: binding; conditions: 3 mM ATPγS, 2 mM Mg2+, peptidiscs; two bound nucleotides at FtsE

With `Nc1ncnc2c1ncn2[C@@H]1O[C@H](COP(=O)(O)OP(=O)(O)OP(=O)(O)O)[C@@H](O)[C@H]1O` [ATP] the “complex stabilisation (SEC yield, FtsE:FtsX stoichiometry on SDS-PAGE)” value (PaeFtsEX) was “regardless of the bacterial species, ATP consistently enhanced the stability of the complexes”, the “complex stabilisation (SEC yield, FtsE:FtsX stoichiometry on SDS-PAGE)” value (BsFtsEX) was “regardless of the bacterial species, ATP consistently enhanced the stability of the complexes” and the “complex stabilisation (SEC yield, FtsE:FtsX stoichiometry on SDS-PAGE)” value (SpFtsEX) was “regardless of the bacterial species, ATP consistently enhanced the stability of the complexes”. The “cryo-EM structure, 3.4 Å” value (EcoFtsEX/EnvC) was 8W6J (ATP-bound FtsE^E163QX/EnvC).
With `Nc1ncnc2c1ncn2[C@@H]1O[C@H](COP(=O)(O)OP(=O)(O)NP(=O)(O)O)[C@@H](O)[C@H]1O` [AMP-PNP] the “complex stabilisation against precipitation (SDS-PAGE)” value (EcoFtsEX [1]) was “ATP analogues, including ATPγS, AMP-PNP, and ADP, also exhibited similar stabilizing effects”.
For `Nc1ncnc2c1ncn2[C@@H]1O[C@H](COP(=O)(O)OP(=O)(O)O)[C@@H](O)[C@H]1O` [ADP], the “complex stabilisation against precipitation (SDS-PAGE)” value (EcoFtsEX [1]) was “ATP analogues, including ATPγS, AMP-PNP, and ADP, also exhibited similar stabilizing effects”.
`Nc1ncnc2c1ncn2[C@@H]1O[C@H](COP(=O)(O)OP(=O)(O)OP(O)(O)=S)[C@@H](O)[C@H]1O` [ATPγS] was tested, and the “cryo-EM structure, 3.7 Å” value (EcoFtsEX [2]) was 8W6I (ATPγS bound FtsEX).
